target: T1, Aurora A (Homo sapiens, UniProt O14965); test: IC50 determination for inhibitors of Aurora A (96 MTP-ELISA); format: biochemical; settings: His4-tagged full-length Aurora A 250 ng/ml, PKB-GSK2 200 nM, ATP 4 μM, 90 min room temperature, read-out: IC50 Aurora A kinase inhibition
T1 construct: C-terminally Histidine4 (His4)-tagged Aurora A full-length protein; His4 (C)
T1 sequence (O14965 1-403): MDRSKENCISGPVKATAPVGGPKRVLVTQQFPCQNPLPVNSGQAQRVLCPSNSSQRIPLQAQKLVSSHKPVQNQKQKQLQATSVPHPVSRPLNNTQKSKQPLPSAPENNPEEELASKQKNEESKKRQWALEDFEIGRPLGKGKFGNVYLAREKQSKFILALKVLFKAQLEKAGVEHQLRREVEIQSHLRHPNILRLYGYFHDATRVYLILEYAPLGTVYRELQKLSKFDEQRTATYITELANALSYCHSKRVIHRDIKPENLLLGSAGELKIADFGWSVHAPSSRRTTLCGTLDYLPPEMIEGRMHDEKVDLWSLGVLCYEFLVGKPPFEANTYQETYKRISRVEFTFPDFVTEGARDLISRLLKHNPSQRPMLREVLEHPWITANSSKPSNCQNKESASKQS
How it was run: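 Full-length C-terminally His4-tagged Aurora A (250 ng/ml) phosphorylates biotinylated GSK3-alpha peptide (200 nM) with 4 μM ATP in pH 7.8 Tris/MgCl2/DTT buffer, 1% DMSO, 90 min at room temperature, EDTA stop. Phospho-Ser21 antibody plus HRP anti-mouse, ABTS absorbance 405/492 nm; IC50 from 8-point curve fit.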

IC50, 1 to 100 nM:
CCCN1C(=O)C(C)(C)c2cc3nc(-c4n[nH]c5ccccc45)[nH]c3cc21 [Example 5, 2-(1H-indazol-3-yl)-7,7-dimethyl-5-propyl-5,7-dihydro-3H-imidazo[4,5-f]indol-6-one]
CC1(C)C(=O)N(CC(=O)O)c2cc3[nH]c(-c4n[nH]c5ccccc45)nc3cc21 [Example 36, [2-(1H-Indazol-3-yl)-7,7-dimethyl-6-oxo-6,7-dihydro-3H-imidazo[4,5-f]indol-5-yl]-acetic acid]
CC1(C)C(=O)N(CCO[Si](C)(C)C(C)(C)C)c2cc3[nH]c(-c4n[nH]c5ccccc45)nc3cc21 [Example 28, 5-[2-(tert-Butyl-dimethyl-silanyloxy)-ethyl]-2-(1H-indazol-3-yl)-7,7-dimethyl-5,7-dihydro-3H-imidazo[4,5-f]indol-6-one]
CCOC(=O)CN1C(=O)C(C)(C)c2cc3nc(-c4n[nH]c5ccccc45)[nH]c3cc21 [Example 23, [2-(1H-Indazol-3-yl)-7,7-dimethyl-6-oxo-6,7-dihydro-3H-imidazo[4,5-f]indol-5-yl]-acetic acid ethyl ester]
